HELM strings list units from the 5' end as sugar, base in round brackets, then linkage (d deoxyribose, r ribose, m 2'-O-methyl, p phosphodiester). Strings are as the collection lists them; they lack the last nucleoside at the 3' end of the tested compound. [moe] = 2'-O-(2-methoxyethyl) (MOE); [sp] = phosphorothioate linkage; [m5C] = 5-methylcytosine

Drawing on the OligoGym collection, this text covers 3 h FOB score for nine substances.

This series addresses SMN2. Briefly: mouse, dose not given. To be noted: ASO.
Regarding “RNA1{[moe](T)[sp].[moe]([m5C])[sp].[moe](A)[sp].[moe]([m5C])[sp].[moe](T)[sp].[moe](T)[sp].[moe](T)[sp].[moe]([m5C])[sp].[moe](A)[sp].[moe](T)[sp].[moe](A)[sp].[moe](A)[sp].[moe](T)[sp].[moe](G)[sp].[moe]([m5C])[sp].[moe](T)[sp].[moe](G)[sp].[moe](G)p.[moe](T)}$$$$ (last 3' nucleoside missing)”, the 3 h FOB score is 4 score 0-7.
As to “RNA1{[moe]([m5C])[sp].[moe](A)p.[moe]([m5C])[sp].[moe](T)[sp].[moe](T)[sp].[moe](T)[sp].[moe]([m5C])[sp].[moe](A)[sp].[moe](T)[sp].[moe](A)[sp].[moe](A)[sp].[moe](T)[sp].[moe](G)[sp].[moe]([m5C])[sp].[moe](T)p.[moe](G)[sp].[moe](G)}$$$$ (last 3' nucleoside missing)”, the 3 h FOB score turned out to be 0 score 0-7.
Substance “RNA1{[moe]([m5C])[sp].[moe](A)[sp].[moe]([m5C])[sp].[moe](T)[sp].[moe](T)[sp].[moe](T)[sp].[moe]([m5C])[sp].[moe](A)[sp].[moe](T)[sp].[moe](A)[sp].[moe](A)[sp].[moe](T)[sp].[moe](G)p.[moe]([m5C])[sp].[moe](T)p.[moe](G)[sp].[moe](G)}$$$$ (last 3' nucleoside missing)” returned a 3 h FOB score of 0 score 0-7.
The result for “RNA1{[moe](G)[sp].[moe](A)[sp].[moe](T)[sp].[moe](T)[sp].[moe]([m5C])[sp].[moe](A)[sp].[moe]([m5C])[sp].[moe](T)[sp].[moe](T)[sp].[moe](T)[sp].[moe]([m5C])[sp].[moe](A)[sp].[moe](T)[sp].[moe](A)[sp].[moe](A)[sp].[moe](T)[sp].[moe](G)[sp].[moe]([m5C])[sp].[moe](T)}$$$$ (last 3' nucleoside missing)” reads 4 score 0-7.
The result for “RNA1{[moe]([m5C])[sp].[moe](A)[sp].[moe]([m5C])[sp].[moe](T)[sp].[moe](T)[sp].[moe](T)[sp].[moe]([m5C])[sp].[moe](A)p.[moe](T)p.[moe](A)p.[moe](A)[sp].[moe](T)[sp].[moe](G)[sp].[moe]([m5C])[sp].[moe](T)[sp].[moe](G)[sp].[moe](G)}$$$$ (last 3' nucleoside missing)” reads 1 score 0-7; that for “RNA1{[moe]([m5C])[sp].[moe](A)[sp].[moe]([m5C])[sp].[moe](T)[sp].[moe](T)[sp].[moe](T)[sp].[moe]([m5C])[sp].[moe](A)[sp].[moe](T)[sp].[moe](A)[sp].[moe](A)[sp].[moe](T)[sp].[moe](G)p.[moe]([m5C])[sp].[moe](T)[sp].[moe](G)[sp].[moe](G)}$$$$ (last 3' nucleoside missing)”, 0 score 0-7; that for “RNA1{[moe]([m5C])[sp].[moe](T)[sp].[moe](T)[sp].[moe](T)[sp].[moe]([m5C])p.[moe](A)p.[moe](T)p.[moe](A)p.[moe](A)[sp].[moe](T)[sp].[moe](G)[sp].[moe]([m5C])[sp].[moe](T)[sp].[moe](G)[sp].[moe](G)}$$$$ (last 3' nucleoside missing)”, 1 score 0-7.
The result for “RNA1{[moe]([m5C])[sp].[moe](A)[sp].[moe]([m5C])[sp].[moe](T)[sp].[moe](T)[sp].[moe](T)p.[moe]([m5C])p.[moe](A)p.[moe](T)p.[moe](A)p.[moe](A)p.[moe](T)p.[moe](G)[sp].[moe]([m5C])[sp].[moe](T)[sp].[moe](G)[sp].[moe](G)}$$$$ (last 3' nucleoside missing)” reads 0 score 0-7; that for “RNA1{[moe](A)[sp].[moe]([m5C])[sp].[moe](T)p.[moe](T)[sp].[moe](T)[sp].[moe]([m5C])[sp].[moe](A)[sp].[moe](T)[sp].[moe](A)p.[moe](A)[sp].[moe](T)[sp].[moe](G)[sp].[moe]([m5C])[sp].[moe](T)p.[moe](G)[sp].[moe](G)}$$$$ (last 3' nucleoside missing)”, 0 score 0-7.
